Results published in US10167279B2 (NOVARTIS AG, priority 2014, dated 2019).

How the values were obtained:
C-Raf FL = C-Raf FL (Homo sapiens (Human), UniProt P04049, Y340E/Y341E); test: In vitro Raf activity determination (Alpha Screen, phospho-MEK), C-Raf FL (full length, Y340E/Y341E); assay type: biochemical; details: ATP 1 μM; 60 min pre-incubation; 1 hour reaction; column head does not say FL or TR
Summary of the method: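 Read-out is AlphaScreen luminescence using rabbit anti-p-MEK with protein A beads after EDTA stop, with IC50 fitted by non-linear regression. Reaction: Sf9-derived C-Raf plus biotinylated E. coli MEK1 K97R substrate, pH 7.5 Tris/MgCl2/DTT buffer, compound preincubated 60 min at room temperature.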

b-Raf (V600E) = b-Raf (V600E) (Homo sapiens (Human), UniProt P15056, V600E); test: In vitro Raf activity determination (Alpha Screen, phospho-MEK), b-Raf (V600E); assay type: biochemical; details: ATP 10 μM, 60 min pre-incubation, 3 hours reaction
b-Raf (V600E), sequence (P15056 whole entry V600E): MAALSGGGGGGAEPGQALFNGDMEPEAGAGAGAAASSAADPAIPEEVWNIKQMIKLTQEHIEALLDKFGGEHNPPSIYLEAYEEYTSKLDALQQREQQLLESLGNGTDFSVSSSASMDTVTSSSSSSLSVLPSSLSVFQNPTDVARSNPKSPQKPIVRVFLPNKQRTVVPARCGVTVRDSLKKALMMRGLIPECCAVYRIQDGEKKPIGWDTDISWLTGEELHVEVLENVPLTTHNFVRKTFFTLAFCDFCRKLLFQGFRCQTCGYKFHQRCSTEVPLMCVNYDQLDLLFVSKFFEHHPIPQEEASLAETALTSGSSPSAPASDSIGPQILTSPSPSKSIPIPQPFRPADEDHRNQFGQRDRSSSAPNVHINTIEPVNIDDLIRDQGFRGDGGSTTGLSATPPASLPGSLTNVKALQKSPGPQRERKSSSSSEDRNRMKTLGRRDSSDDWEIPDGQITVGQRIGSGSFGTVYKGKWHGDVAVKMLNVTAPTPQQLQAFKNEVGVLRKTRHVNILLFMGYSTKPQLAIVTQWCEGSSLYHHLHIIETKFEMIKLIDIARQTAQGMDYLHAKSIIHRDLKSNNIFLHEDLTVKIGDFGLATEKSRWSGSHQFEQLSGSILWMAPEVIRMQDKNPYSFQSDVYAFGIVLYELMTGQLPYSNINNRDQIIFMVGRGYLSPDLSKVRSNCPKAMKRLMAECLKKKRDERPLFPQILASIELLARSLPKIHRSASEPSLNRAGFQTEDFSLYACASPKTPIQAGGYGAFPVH
From the text: The activity of a compound according to the present invention can be assessed by well-known in vitro & in vivo methods. Raf inhibition data provided herein was obtained using the following procedures.
Sf9 cells co-expressing both proteins were lysed and subjected to immobilized nickel chromatography and eluted with Imidazole. A second column (StrepII binding column) was used and eluted with desthiobiotin. Protein Tags were removed using Prescission enzyme and the protein was further purified using a flowthrough step to remove tags.
Full length MEK1 with an inactivating K97R ATP binding site mutation is utilized as a RAF substrate. The MEK1 cDNA was subcloned with an N-terminal (his)6 tag into a vector for E. Coli expression. The MEK1 substrate was purified from E. Coli lysate by nickel affinity chromatography followed by anion exchange. The final MEK1 preparation was biotinylated (Pierce EZ-Link Sulfo-NHS-LC-Biotin) and concentrated.
The plate was incubated for 60 minutes at room temperature. […] The additions were carried out under dark conditions to protect the detection beads from light. A lid was placed on top of the plate and incubated for 1 hour at room temperature, after which the luminescence was read on a PerkinElmer Envision instrument.

C-Raf FL, sequence (P04049 whole entry Y340E/Y341E): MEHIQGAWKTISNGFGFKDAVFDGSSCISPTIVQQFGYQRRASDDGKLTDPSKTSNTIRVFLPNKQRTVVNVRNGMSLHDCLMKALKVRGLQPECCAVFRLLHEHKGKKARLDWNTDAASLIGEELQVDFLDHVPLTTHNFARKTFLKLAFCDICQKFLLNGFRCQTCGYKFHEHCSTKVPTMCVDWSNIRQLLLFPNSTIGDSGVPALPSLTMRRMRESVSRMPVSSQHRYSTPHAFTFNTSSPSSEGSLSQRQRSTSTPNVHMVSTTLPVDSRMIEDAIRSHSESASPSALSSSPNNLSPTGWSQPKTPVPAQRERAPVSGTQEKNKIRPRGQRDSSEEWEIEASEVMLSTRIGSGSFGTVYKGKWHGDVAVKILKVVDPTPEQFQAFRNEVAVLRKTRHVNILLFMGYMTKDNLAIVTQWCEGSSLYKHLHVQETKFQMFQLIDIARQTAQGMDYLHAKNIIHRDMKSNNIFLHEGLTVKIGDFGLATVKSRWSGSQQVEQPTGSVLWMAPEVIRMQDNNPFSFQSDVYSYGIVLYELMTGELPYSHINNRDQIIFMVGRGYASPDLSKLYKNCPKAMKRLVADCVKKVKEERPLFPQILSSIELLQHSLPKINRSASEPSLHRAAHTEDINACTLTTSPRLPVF
C-Raf FL, sequence (P63104 whole entry partner): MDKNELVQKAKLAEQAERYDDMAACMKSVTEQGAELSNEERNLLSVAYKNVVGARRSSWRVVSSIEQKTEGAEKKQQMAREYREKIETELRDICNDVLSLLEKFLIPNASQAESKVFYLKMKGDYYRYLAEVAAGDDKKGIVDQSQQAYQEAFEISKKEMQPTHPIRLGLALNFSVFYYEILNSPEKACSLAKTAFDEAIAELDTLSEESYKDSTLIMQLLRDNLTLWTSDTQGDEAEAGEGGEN

SMILES | IC50 (C-Raf FL) [nM] | IC50 (b-Raf (V600E)) [nM]
COc1cc(-c2cc(NC(=O)c3ccnc(C(C)(C)C#N)c3)ccc2C)cc(C2COC2)c1 [Example 23, 2-(2-cyanopropan-2-yl)-N-(3′-methoxy-6-methyl-5′-(oxetan-3-yl)-[1,1′-biphenyl]-3-yl)isonicotinamide] | 25000 | 25000
Cc1ccc(NC(=O)c2ccnc(C(C)(C)C#N)c2)cc1-c1cccc(C2COC2)c1 [Example 28, 2-(2-cyanopropan-2-yl)-N-(6-methyl-3′-(oxetan-3-yl)-[1,1′-biphenyl]-3-yl)isonicotinamide] | 25000 | 25000
Cc1ccc(NC(=O)c2ccnc(C(C)(C)C#N)c2)cc1-c1cc(C2(C)COC2)c2nccn2n1 [Example 29, 2-(2-cyanopropan-2-yl)-N-(4-methyl-3-(8-(3-methyloxetan-3-yl)imidazo[1,2-b]pyridazin-6-yl)phenyl)isonicotinamide] | 0.637 | 4.95
COc1ncc(-c2cc(NC(=O)c3ccnc(C(C)(C)C#N)c3)ccc2C)cc1C1(F)COC1 [Example 30, 2-(2-cyanopropan-2-yl)-N-(3-(5-(3-fluorooxetan-3-yl)-6-methoxypyridin-3-yl)-4-methylphenyl)isonicotin-amide] | 0.229 | 1.3
CCOc1ncc(-c2cc(NC(=O)c3ccnc(C(C)(C)C#N)c3)ccc2C)cc1C1(CF)COC1 [Example 31, 2-(2-cyanopropan-2-yl)-N-(3-(6-ethoxy-5-(3-(fluoromethyl)oxetan-3-yl)pyridin-3-yl)-4-methylphenyl)isonicotin-amide] | 0.157 | 0.446
Cc1ccc(NC(=O)c2ccnc(C(C)(C)C#N)c2)cc1-c1cnc(OC2CCOCC2)c(C2(O)COC2)c1 [Example 33, 2-(2-cyanopropan-2-yl)-N-(3-(5-(3-hydroxyoxetan-3-yl)-6-((tetrahydro-2H-pyran-4-yl)oxy)pyridin-3-yl)-4-methylphenyl)isonicotin-amide] | 0.804 | 2.14
Cc1ncc(NC(=O)c2ccnc(C(C)(C)C#N)c2)cc1-c1cnc(OC2CCOCC2)c(C2(O)COC2)c1 [Example 34, 2-(2-cyanopropan-2-yl)-N-(5′-(3-hydroxyoxetan-3-yl)-2-methyl-6′-((tetrahydro-2H-pyran-4-yl)oxy)-[3,3′-bipyridin]-5-yl)isonicotinamide] | 7.63 | 20.5
Cc1ccc(NC(=O)c2ccnc(C(F)(F)F)c2)cc1-c1cnc(OC2CCOCC2)c(C2(O)COC2)c1 [Example 35, N-(3-(5-(3-hydroxyoxetan-3-yl)-6-((tetrahydro-2H-pyran-4-yl)oxy)pyridin-3-yl)-4-methylphenyl)-2-(trifluoromethyl)isonicotin-amide] | 0.297 | 0.966
COc1ncc(-c2cc(NC(=O)c3ccnc(C(C)(C)C#N)c3)ccc2C)cc1C1(C=O)COC1 [Example 43, 2-(2-cyanopropan-2-yl)-N-(3-(5-(3-formyloxetan-3-yl)-6-methoxypyridin-3-yl)-4-methylphenyl)isonicotin-amide] | 2.67 | 10.2
Cc1ccc(NC(=O)c2ccnc(C(C)(C)O)c2)cc1-c1cc(C2(C)COC2)c2nccn2n1 [Example 62, 2-(2-hydroxypropan-2-yl)-N-(4-methyl-3-(8-(3-methyloxetan-3-yl)imidazo[1,2-b]pyridazin-6-yl)phenyl)isonicotinamide] | 0.707 | 3.77
CCOc1ncc(-c2cc(NC(=O)c3ccnc(C(C)(C)C#N)c3)cnc2C)cc1C1(C)COC1 [Example 64, 2-(2-cyanopropan-2-yl)-N-(6′-ethoxy-2-methyl-5′-(3-methyloxetan-3-yl)-[3,3′-bipyridin]-5-yl)isonicotinamide] | 1.18 | 7.12
CCOc1ncc(-c2cc(NC(=O)c3cnnc(C(C)(C)C#N)c3)cnc2C)cc1C1(C)COC1 [Example 65, 6-(2-cyanopropan-2-yl)-N-(6′-ethoxy-2-methyl-5′-(3-methyloxetan-3-yl)-[3,3′-bipyridin]-5-yl)pyridazine-4-carboxamide] | 1.13 | 7.13
COc1ncc(-c2cc(NC(=O)c3cc(C(C)(F)F)ccn3)ccc2C)cc1C1(F)COC1 [Example 89, 4-(1,1-difluoroethyl)-N-(3-(5-(3-fluorooxetan-3-yl)-6-methoxypyridin-3-yl)-4-methylphenyl)picolinamide] | – | 1.19

Other lines, results leading:

IC50 (C-Raf FL) [nM] | IC50 (b-Raf (V600E)) [nM] | SMILES
0.628 | 6.88 | COc1cc(-c2cc(NC(=O)c3cccc(C(F)(F)F)c3)cnc2C)cc(C2COC2)c1 [Example 20, N-(5-(3-methoxy-5-(oxetan-3-yl)phenyl)-6-methylpyridin-3-yl)-3-(trifluoromethyl)-benzamide]
0.373 | 2.73 | COc1cc(-c2cc(NC(=O)c3cccc(C(F)(F)F)c3)ccc2C)cc(C2COC2)c1 [Example 21]
0.455 | 3.52 | Cc1ncc(NC(=O)c2cccc(C(F)(F)F)c2)cc1-c1cccc(C2(C)COC2)c1 [Example 24]
0.154 | 0.87 | Cc1ccc(NC(=O)c2cccc(C(F)(F)F)c2)cc1-c1cccc(C2(C)COC2)c1 [Example 25, N-(6-methyl-3′-(3-methyloxetan-3-yl)-[1,1′-biphenyl]-3-yl)-3-(trifluoromethyl)benz-amide]
0.372 | 2.3 | Cc1ccc(C(=O)Nc2cccc(C(F)(F)F)c2)cc1-c1cccc(C2(C)COC2)c1 [Example 26, 6-methyl-3′-(3-methyloxetan-3-yl)-N-(3-(trifluoromethyl)phenyl)-[1,1′-biphenyl]-3-carboxamide]
263 | 1210 | Cc1ccc(NC(=O)c2ccnc(C(C)(C)C#N)c2)cc1-c1cccc(C2(C)COC2)c1 [Example 27, 2-(2-cyanopropan-2-yl)-N-(6-methyl-3′-(3-methyloxetan-3-yl)-[1,1′-biphenyl]-3-yl)isonicotinamide]
1.84 | 12 | Cc1ncc(NC(=O)c2cccc(C(F)(F)F)c2)cc1-c1cnc(OCCO)c(C2(O)COC2)c1 [Example 36, N-(6′-(2-hydroxyethoxy)-5′-(3-hydroxyoxetan-3-yl)-2-methyl-[3,3′-bipyridin]-5-yl)-3-(trifluoromethyl)benzamide]
0.354 | 1.85 | Cc1ncc(NC(=O)c2cccc(C(F)(F)F)c2)cc1-c1cnc(OCCO)c(C2(F)COC2)c1 [Example 37, N-(5′-(3-fluorooxetan-3-yl)-6′-(2-hydroxyethoxy)-2-methyl-[3,3′-bipyridin]-5-yl)-3-(trifluoromethyl)benzamide]
0.729 | 4.84 | Cc1ncc(NC(=O)c2ccnc(C(F)(F)F)c2)cc1-c1cnc(OCCO)c(C2(F)COC2)c1 [Example 38, N-(5′-(3-fluorooxetan-3-yl)-6′-(2-hydroxyethoxy)-2-methyl-[3,3′-bipyridin]-5-yl)-2-(trifluoromethyl)isonicotin-amide]
1.17 | 5.9 | Cc1ncc(NC(=O)c2ccnc(C(C)(F)F)c2)cc1-c1cnc(OCCO)c(C2(F)COC2)c1 [Example 39, 7-(1,1-difluoroethyl)-N-(5′-(3-fluorooxetan-3-yl)-6′-(2-hydroxyethoxy)-2-methyl-[3,3′-bipyridin]-5-yl)isonotinamide]
0.243 | 1.42 | COc1ncc(-c2cc(NC(=O)c3ccnc(C(C)(C)F)c3)cnc2C)cc1C1(C(F)F)COC1 [Example 42, N-(5′-(3-(difluoromethyl)oxetan-3-yl)-6′-methoxy-2-methyl-[3,3′-bipyridin]-5-yl)-2-(2-fluoropropan-2-yl)isonicotinamide]
8.63 | 67.9 | Cc1ncc(NC(=O)c2cccc(C(F)(F)F)c2)cc1-c1cc(C2(F)COC2)c(=O)n(CCCO)c1 [Example 44, N-(5′-(3-fluorooxetan-3-yl)-1′-(3-hydroxypropyl)-2-methyl-6′-oxo-1′,6′-dihydro-[3,3′-bipyridin]-5-yl)-3-(trifluoromethyl)benzamide]
121 | 1180 | Cc1ncc(NC(=O)c2cccc(C(F)(F)F)c2)cc1-c1cc(C2(F)COC2)c(=O)n(CC(O)CO)c1 (centres unmarked) [Example 45, N-(1′-(2,3-dihydroxypropyl)-5′-(3-fluorooxetan-3-yl)-2-methyl-6′-oxo-1′,6′-dihydro-[3,3′-bipyridin]-5-yl)-3-(trifluoromethyl)benzamide]
0.118 | 0.469 | COc1ncc(-c2cc(NC(=O)c3cccc(C(F)(F)F)c3)cnc2C)cc1C1(CF)COC1 [Example 49, N-(5′-(3-(fluoromethyl)oxetan-3-yl)-6′-methoxy-2-methyl-[3,3′-bipyridin]-5-yl)-3-(trifluoromethyl)benzamide]
0.183 | 0.613 | CCOc1ncc(-c2cc(NC(=O)c3ccnc(C(F)(F)F)c3)cnc2C)cc1C1(C)COC1 [Example 63, N-(6′-ethoxy-2-methyl-5′-(3-methyloxetan-3-yl)-[3,3′-bipyridin]-5-yl)-2-(trifluoromethyl)isonicotin-amide]
– | 13 | COc1ncc(-c2cc(NC(=O)c3cc(C(C)(F)F)ccn3)cnc2C)cc1C1(O)COC1 [Example 91]
